Assay results published in publication PMC8373216, “Development and Preclinical Evaluation of New Inhaled Lipoglycopeptides for the Treatment of Persistent Pulmonary Methicillin-Resistant Staphylococcus aureus Infections” (Antimicrobial Agents and Chemotherapy, 2021).
Converted amounts (≈) assume the structure as drawn. Where two headings read alike, the source gives them in different places.

Experiments:
Staphylococcus hominis = test: Expanded panel broth microdilution MIC; format: cell-based
[1] = test system: MRSA ATCC BAA 1556 (USA300) biofilm; test: MRSA biofilm killing, MBEC assay system, TSB with 1% human plasma; settings: MBEC
Clostridioides difficile = test: Expanded panel broth microdilution MIC; format: cell-based
[2] = test system: Staphylococcus lugdunensis; test: Expanded panel broth microdilution MIC; format: cell-based
Streptococcus oralis = test: Expanded panel broth microdilution MIC; format: cell-based
Streptococcus pneumoniae = test: Expanded panel broth microdilution MIC/MBC; format: cell-based
Clostridium. perfringens = test: microbe, parasite or virus in culture; format: cell-based
Streptococcus agalactiae = test: Expanded panel broth microdilution MIC/MBC; format: cell-based; settings: for MIC: Streptococcus agalactiae
Cutibacterium acnes = test: Expanded panel broth microdilution MIC; format: cell-based
[3] = test system: Staphylococcus haemolyticus; test: Expanded panel broth microdilution MIC; format: cell-based
[4] = test system: Peptostreptococcus anaerobius; test: Expanded panel broth microdilution MIC; format: cell-based
[5] = test system: MRSA (ATCC BAA 1556; USA300); test: Acute pulmonary MRSA infection in neutropenic rats, nebulized nose-only inhalation; format: in vivo, Staphylococcus aureus; settings: inhaled at 24 and 32 h postinfection, lungs at 48 h, RV40 14.4 mg/kg, RV94 18.8 mg/kg delivered
Method: Rats were rendered neutropenic with intraperitoneal (i.p.) cyclophosphamide on day −4 (150 mg/kg) and day −1 (100 mg/kg) relative to the challenge. On day 0 at 0 h, rats were challenged with MRSA via intranasal instillation at a target titer of 8.0 to 8.3 log10 CFU. At 24 and 32 h postchallenge, rats were loaded into a 12-port inhalation dosing tower, where they received nebulized drug or vehicle control treatments by nose-only inhalation. Animals were euthanized at 48 h postinfection for enumeration of lung MRSA titer. MRSA lung titer of test article treatments versus control is plotted for three separate experiments. […] Statistics are based on the Kolmogorov-Smirnov test for drug treatment versus control (RV94, P = 0.01). LOD = 2.1 log10 CFU/lungset.
Male Sprague Dawley rats (Envigo, Indianapolis, IN) weighing between 225 and 250 g were used in these studies. Rats were housed and acclimated to the study facility as described in the PK methods section. Rats were rendered neutropenic through a series of intraperitoneal cyclophosphamide (Sigma-Aldrich) injections on day −4 (150 mg/kg) and day −1 (100 mg/kg) relative to the challenge. On day 0 at 0 h, rats were challenged with MRSA ATCC BAA 1556 via intranasal instillation at a target titer of 8.0 to 8.3 log10 CFU using optical density and back-counting inoculum CFU. To prepare the inoculum, a frozen aliquot of the organism stored at −80°C was thawed, transferred into TSB, and incubated at 37°C while shaking for 16 h. Cultures were then centrifuged at 2,000 × g for 5 min, and the resulting pellet was resuspended in PBS and equilibrated. For the challenge procedure, rats were first anesthetized through use of 2 to 5% isoflurane in 100% oxygen, then restrained with a scruff grip and a total of 200 μl of inoculum was quickly introduced to one nare. The rat was held in a vertical position until the challenge was fully inhaled. Rats were monitored following challenge to ensure that normal respiration was achieved and then returned to their cage. […] At necropsy, whole lungs were aseptically removed and lung weights were recorded. […]

[6] = test system: Staphylococcus epidermidis; test: Expanded panel broth microdilution MIC/MBC; format: cell-based; settings: for MIC: Staphylococcus epidermidis
[7] = test system: Streptococcus dysgalactiae; test: Expanded panel broth microdilution MIC/MBC; format: cell-based; settings: for MIC: Streptococcus dysgalactiae
[8] = test system: MRSA ATCC BAA 1556 (USA300); test: In-house broth microdilution MIC screening; format: cell-based, Staphylococcus aureus
Streptococcus mitis = test: Expanded panel broth microdilution MIC/MBC; format: cell-based; settings: for MIC: Streptococcus mitis
[9] = MRSA and MSSA isolates of Table 1

In the case of `CCCCCCCCCCNC(=O)CNC1(C)CC(OC2C(Oc3c4cc5cc3Oc3ccc(cc3Cl)C(O)C3NC(=O)C(NC(=O)C5NC(=O)C(CC(N)=O)NC(=O)C(NC(=O)C(CC(C)C)NC)C(O)c5ccc(c(Cl)c5)O4)c4ccc(O)c(c4)-c4c(O)cc(O)cc4C(C(=O)O)NC3=O)OC(CO)C(O)C2O)OC(C)C1O` (stereo not shown) [RV94], the MIC (Staphylococcus hominis; ATCC27844, S. hominis ATCC 27844, read-out: MIC) is reported as 0.03 µg/mL (≈ 18.2 nM), the MIC (Staphylococcus hominis; S. hominis, 1 isolate, read-out: MIC) is reported as 0.03 µg/mL (≈ 18.2 nM) and the “Biofilm activity, fold more potent than vancomycin at the same dose” value ([1]; 16 μg/ml) is reported as 2 fold. For the same compound, the “Concentrations with statistically significant reduction versus control biofilm” value ([1]; two-way ANOVA, Bonferroni) was at least 2 µg/mL, the MIC (Clostridioides difficile; ATCCBAA1805, C. difficile ATCC BAA-1805, ribo 027, read-out: MIC) was 0.015 µg/mL (≈ 9.11 nM) and the MIC (Clostridioides difficile; ATCCBAA1870, C. difficile ATCC BAA-1870, NAP1;ribo 027, read-out: MIC) was 0.06 µg/mL (≈ 36.4 nM). It also gave an MIC (Clostridioides difficile; C. difficile ATTC 700057, toxAB-, read-out: MIC) of 0.015 µg/mL (≈ 9.11 nM), an MIC (Clostridioides difficile; C. difficile NAP1;ribo 027, 1 isolate, read-out: MIC) of 0.06 µg/mL (≈ 36.4 nM) and an MIC (Clostridioides difficile; C. difficile ribo 027, 1 isolate, read-out: MIC) of 0.015 µg/mL (≈ 9.11 nM). For the same compound, the MIC (Clostridioides difficile; C. difficile toxAB-, 1 isolate, read-out: MIC) was 0.015 µg/mL (≈ 9.11 nM), the MIC ([2]; S. lugdunensis, 1 isolate) was 0.015 µg/mL (≈ 9.11 nM) and the MIC ([2]; Staphylococcus lugdunensis, S. lugdunensis MMX 8724, read-out: MIC) was 0.015 µg/mL (≈ 9.11 nM). The MIC (Streptococcus oralis; S. oralis MGS, 1 isolate) was 0.015 µg/mL (≈ 9.11 nM), the MIC (Streptococcus oralis; Streptococcus oralis, S. oralis (MGS) MMX 5821, read-out: MIC) was 0.015 µg/mL (≈ 9.11 nM) and the “MIC:MBC” value (Streptococcus pneumoniae; S. pneumoniae PISP, MBC on one organism) was 4. It also gave an MIC (Streptococcus pneumoniae; S. pneumoniae PRSP, 1 isolate) of 0.008 µg/mL (≈ 4.86 nM), an MIC (Streptococcus pneumoniae; Streptococcus pneumoniae, ATCC49619, S. pneumoniae ATCC 49619, PISP, read-out: MIC) of 0.008 µg/mL (≈ 4.86 nM) and an MIC (Streptococcus pneumoniae; Streptococcus pneumoniae, S. pneumoniae MMX 432, PRSP, read-out: MIC) of 0.008 µg/mL (≈ 4.86 nM). The MIC (Streptococcus pneumoniae; Streptococcus pneumoniae, S. pneumoniae MMX 747, PISP, read-out: MIC) was 0.004 µg/mL (≈ 2.43 nM), the MIC (Streptococcus pneumoniae; Streptococcus pneumoniae, S. pneumoniae PISP, 2 isolates, read-out: MIC (median)) was 0.006 µg/mL (≈ 3.64 nM) and the MIC (Clostridium. perfringens) was 0.008 µg/mL (≈ 4.86 nM). The MIC (Clostridium. perfringens; ATCC13124) was 0.008 µg/mL (≈ 4.86 nM), the “MIC:MBC” value (Streptococcus agalactiae; S. agalactiae, MBC on one organism) was 4 and the MIC (Streptococcus agalactiae; ATCC13813, S. agalactiae ATCC 13813, read-out: MIC) was 0.03 µg/mL (≈ 18.2 nM). For the same compound, the MIC (Streptococcus agalactiae; S. agalactiae MMX 4088, read-out: MIC) was 0.008 µg/mL (≈ 4.86 nM), the MIC (Streptococcus agalactiae; S. agalactiae MMX 4115, ermR, read-out: MIC) was 0.004 µg/mL (≈ 2.43 nM) and the MIC (Streptococcus agalactiae; S. agalactiae ermR, 1 isolate, read-out: MIC) was 0.004 µg/mL (≈ 2.43 nM). It also gave an MIC (Streptococcus agalactiae; S. agalactiae, 2 isolates, read-out: MIC (median)) of 0.02 µg/mL (≈ 12.1 nM), an MIC (Cutibacterium acnes; ATCC6919, P. acnes ATCC 6919, read-out: MIC) of 0.008 µg/mL (≈ 4.86 nM) and an MIC (Cutibacterium acnes; ATCC11827, P. acnes ATCC 11827, read-out: MIC) of 0.008 µg/mL (≈ 4.86 nM). For the same compound, the MIC (Cutibacterium acnes; C. acnes, 2 isolates, read-out: MIC (median)) was 0.008 µg/mL (≈ 4.86 nM), the MIC ([3]; ATCC29970, S. haemolyticus ATCC 29970, read-out: MIC) was 0.06 µg/mL (≈ 36.4 nM) and the MIC ([3]; S. haemolyticus, 1 isolate, read-out: MIC) was 0.06 µg/mL (≈ 36.4 nM). For the same compound, the MIC ([4]; ATCC27337, P. anaerobius ATCC 27337, read-out: MIC) was 0.008 µg/mL (≈ 4.86 nM), the MIC ([4]; P. anaerobius, 1 isolate, read-out: MIC) was 0.008 µg/mL (≈ 4.86 nM) and the “Average reduction in lung MRSA titer versus vehicle control” value [5] was 1.0 log10 CFU. The “MIC:MBC” value ([6]; S. epidermidis MRSE, MBC on one organism) was 1, the MIC ([6]; ATCC49134, S. epidermidis ATCC 49134, MSSE, read-out: MIC) was 0.015 µg/mL (≈ 9.11 nM) and the MIC ([6]; MRSE, S. epidermidis MMX 762, MRSE, read-out: MIC) was 0.03 µg/mL (≈ 18.2 nM). The MIC ([6]; MRSE, S. epidermidis MMX 5145, MRSE, read-out: MIC) was 0.015 µg/mL (≈ 9.11 nM), the MIC ([6]; MRSE, S. epidermidis MRSE, 2 isolates, read-out: MIC (median)) was 0.03 µg/mL (≈ 18.2 nM) and the MIC ([6]; S. epidermidis MSSE, 1 isolate, read-out: MIC) was 0.015 µg/mL (≈ 9.11 nM). For the same compound, the “MIC:MBC” value ([7]; S. dysgalactiae, MBC on one organism) was 4, the MIC ([7]; S. dysgalactiae MMX 5121, read-out: MIC) was 0.008 µg/mL (≈ 4.86 nM) and the MIC ([7]; S. dysgalactiae MMX 5123, read-out: MIC) was 0.03 µg/mL (≈ 18.2 nM). The MIC ([7]; S. dysgalactiae MMX 5124, read-out: MIC) was 0.008 µg/mL (≈ 4.86 nM), the MIC ([7]; S. dysgalactiae, 3 isolates, read-out: MIC (median)) was 0.008 µg/mL (≈ 4.86 nM) and the “MIC potency, fold less potent than RV40” value [8, 9] was about 2 fold. For the same compound, the “MIC potency, fold more potent than telavancin” value [8, 9] was about 2 fold, the “MIC potency, fold more potent than vancomycin” value [8, 9] was “approximately 30 fold” and the MIC ([8]; Staphylococcus aureus, broth microdilution, read-out: MIC Value, MRSA ATCC BAA 1556) was 0.031 µg/mL (≈ 18.8 nM). The “MIC:MBC” value (Streptococcus mitis; S. mitis MGS, MBC on one organism) was 1, the MIC (Streptococcus mitis; ATCC49456, S. mitis (MGS) ATCC 49456, read-out: MIC) was 0.008 µg/mL (≈ 4.86 nM) and the MIC (Streptococcus mitis; S. mitis (MGS) MMX 5798, read-out: MIC) was 0.008 µg/mL (≈ 4.86 nM). It also gave an MIC (Streptococcus mitis; S. mitis MGS, 2 isolates, read-out: MIC (median)) of 0.008 µg/mL (≈ 4.86 nM).
